Test results: ChEMBL document CHEMBL3885881, “DrugMatrix”

Species on record: Rattus norvegicus
Experiment: DrugMatrix - Regimen: Daily Repeat
Type: toxicity, organism-based, Sprague-Dawley
Design: regimen Daily Repeat, gender Male, age 6-8 weeks
Conditions: in vivo, po, 90 mg/kg, route oral GAVAGE, dose level Low, vehicle 100 % WATER; for ALANINE AMINOTRANSFERASE / ALBUMIN / ALKALINE PHOSPHATASE / ASPARTATE AMINOTRANSFERASE / BLOOD UREA NITROGEN / CARBON DIOXIDE / CHLORIDE / CHOLESTEROL / CREATINE PHOSPHOKINASE / CREATININE / LACTATE DEHYDROGENASE / LIPASE / PHOSPHORUS / POTASSIUM / SODIUM / TOTAL BILIRUBIN / TOTAL PROTEIN / URIC ACID: tissue Plasma
[1] = 120 h, tissue Blood, time 5 day

## CC(NC(C)(C)C)C(=O)c1cccc(Cl)c1 (stereo not drawn) [BUPROPION]
72 h, tissue Blood, time 3 day
  ABSOLUTE BASOPHIL: 0 CELLS/uL
  ABSOLUTE EOSINOPHIL: 0 CELLS/uL
  ABSOLUTE LYMPHOCYTE: 10359.67 CELLS/uL
  ABSOLUTE MONOCYTE: 103.67 CELLS/uL
  ABSOLUTE SEGMENTED NEUTROPHIL: 603.33 CELLS/uL
  BASOPHIL: 0%
  EOSINOPHIL: 0%
  ERYTHROCYTE COUNT: 5.5 x10E6/uL
  HEMATOCRIT: 35.63%
  HEMOGLOBIN: 13.4 G/DL
  LEUKOCYTE COUNT: 11.07 x10E3/uL
  LYMPHOCYTE: 93.67%
  MEAN CORPUSCULAR HEMOGLOBIN: 24.4 pg
  MEAN CORPUSCULAR HEMOGLOBIN CONCENTRATION: 37.63 G/DL
  MEAN CORPUSCULAR VOLUME: 64.83 fL
  MONOCYTE: 1%
  NEUTROPHIL: 5.33%
  NUCLEATED RED BLOOD CELLS: 0 /100WBC
  PLATELET COUNT: 1176 x10E3/uL
72 h, time 3 day
  ALANINE AMINOTRANSFERASE: 40 u/L
  ALBUMIN: 4.5 G/DL
  ALKALINE PHOSPHATASE: 417.67 u/L
  ASPARTATE AMINOTRANSFERASE: 84.67 u/L
  BLOOD UREA NITROGEN: 16.33 mg/dL
  CARBON DIOXIDE: 31 mmol/L
  CHLORIDE: 99.33 MEQ/L
  CHOLESTEROL: 95 mg/dL
  CREATINE PHOSPHOKINASE: 325 u/L
  CREATININE: 0.19 mg/dL
  LACTATE DEHYDROGENASE: 154.67 u/L
  LIPASE: 9 u/L
  PHOSPHORUS: 10.93 mg/dL
  POTASSIUM: 6.49 MEQ/L
  SODIUM: 143.13 MEQ/L
  TOTAL BILIRUBIN: 0.17 mg/dL
  TOTAL PROTEIN: 6.53 G/DL
  URIC ACID: 0.73 mg/dL
[1]
  ABSOLUTE BASOPHIL: 0 CELLS/uL
  ABSOLUTE EOSINOPHIL: 55.33 CELLS/uL
  ABSOLUTE LYMPHOCYTE: 14977 CELLS/uL
  ABSOLUTE MONOCYTE: 411.67 CELLS/uL
  ABSOLUTE SEGMENTED NEUTROPHIL: 2222.67 CELLS/uL
  BASOPHIL: 0%
  EOSINOPHIL: 0.33%
  ERYTHROCYTE COUNT: 5.73 x10E6/uL
  HEMATOCRIT: 37.5%
  LEUKOCYTE COUNT: 17.67 x10E3/uL
  LYMPHOCYTE: 86.67%
  MEAN CORPUSCULAR HEMOGLOBIN: 24.83 pg
  MEAN CORPUSCULAR HEMOGLOBIN CONCENTRATION: 37.83 G/DL
  MEAN CORPUSCULAR VOLUME: 65.57 fL
  MONOCYTE: 2%
  NEUTROPHIL: 11%
  NUCLEATED RED BLOOD CELLS: 0 /100WBC
  PLATELET COUNT: 1410.67 x10E3/uL
120 h, time 5 day
  ALANINE AMINOTRANSFERASE: 37.67 u/L
  ALBUMIN: 4.67 G/DL
  ALKALINE PHOSPHATASE: 328 u/L
  ASPARTATE AMINOTRANSFERASE: 72 u/L
  BLOOD UREA NITROGEN: 17.33 mg/dL
  CARBON DIOXIDE: 32.33 mmol/L
  CHLORIDE: 100 MEQ/L
  CHOLESTEROL: 93.67 mg/dL
  CREATINE PHOSPHOKINASE: 263 u/L
  CREATININE: 0.21 mg/dL
  LACTATE DEHYDROGENASE: 145 u/L
  LIPASE: 9.33 u/L
  PHOSPHORUS: 12.6 mg/dL
  POTASSIUM: 8.49 MEQ/L
  SODIUM: 144.5 MEQ/L
  TOTAL BILIRUBIN: 0.23 mg/dL
  TOTAL PROTEIN: 6.77 G/DL
  URIC ACID: 1.6 mg/dL
